Reference: patent publication US20070060478A1, “Herbicidal mixtures comprising a safener” (BASF AKTIENGESELLSCHAFT, priority 2005, published 2007)

Legend:
Format in all cases: in vivo
Settings in all cases: 50 g/ha, applied alone
[1] = tested on: pigweed; assay: post-emergence application, control of unwanted plants (damage scale 0% to 100%)
Source text: (§1) The mixtures according to the invention were applied pre- or post-emergence (foliar treatment). The herbicidal compounds of component B) and of component C) were applied in the formulation in which they are present as commercially available product.
(§2) In the case of the field trials, application was effected with the aid of a mobile plot sprayer.
(§3) The test period extended over 3 to 8 weeks, and the stands were also observed at later points in time.
(§4) Damage by the herbicidal compositions was evaluated with reference to a scale of 0% to 100% in comparison with untreated control plots. 0 means no damage and 100 means complete destruction of the plants.

[2] = tested on: durum wheat; assay: post-emergence application, damage to crop plants (damage scale 0% to 100%)
Source text: as §1, §2, §3, §4

[3] = tested on: green foxtail; assay: post-emergence application, control of unwanted plants (damage scale 0% to 100%)
Source text: as §1, §2, §3, §4

[4] = tested on: wild oat; assay: as above
Source text: as §1, §2, §3, §4

[5] = tested on: spring wheat; assay: post-emergence application, damage to crop plants (damage scale 0% to 100%)
Source text: as §1, §2, §3, §4

Q: Which “control of unwanted plants” value [1] does the source give for `Cc1c(C(=O)c2cnn(C)c2O)ccc(S(C)(=O)=O)c1C1=NOCC1` [4-[2-methyl-3-(4,5-dihydro-isoxazol-3-yl)-4-methylsulfonyl-benzoyl]-1-methyl-5-hydroxy-1H-pyrazole] here?
A: in an excellent manner

Q: What about the “damages in crop plants” value [2] of the same molecule?
A: causes damages

Q: What about the “control of unwanted plants” value [3] of the same molecule?
A: in an excellent manner

Q: What about the “control of unwanted plants” value [4] of the same molecule?
A: in an excellent manner

Q: What about the “damages in crop plants” value [5] of the same molecule?
A: causes damages
